Assay results from patent publication US20060052459A1, “Antifungal medicaments comprising arylamidine derivatives” (priority 2002, published 2006).
Like-named read-outs stand apart in the source and are kept apart here.

Legend:
[1] = test system: Aspergillus fumigatus strain IP 864.64; test: In vitro antifungal growth inhibition on microtitre plates (optical density 590 nm), compounds alone or as mixtures (Wadley method); format: cell-based; conditions: for inhibition at 0.026 µg/mL / inhibition at 0.098 µg/mL / inhibition at 0.39 µg/mL / inhibition at 1.562 µg/mL / inhibition at 6.25 µg/mL / inhibition at 25 µg/mL / inhibition at 100 µg/mL / EC50: Aspergillus fumigatus; for inhibition at 0.026 µg/mL: dose 0.026 μg/ml; for inhibition at 0.098 µg/mL: dose 0.098 μg/ml; for inhibition at 0.39 µg/mL: dose 0.39 μg/ml; for inhibition at 1.562 µg/mL: dose 1.562 μg/ml; for inhibition at 6.25 µg/mL: dose 6.25 μg/ml; for inhibition at 25 µg/mL: dose 25 μg/ml; for inhibition at 100 µg/mL: dose 100 μg/ml
Description: (§1) The following fungi were used for this study: Candida albicans strains IP 48.72 (ATCC 10231) and Aspergillus fumigatus strain IP 864.64 obtained from the Collection Nationale de Cultures de Microorganismes (CNCM) of the Institut Pasteur. The strains are cultured on Yeast Extract-Peptone-Dextrose (YEPD) agar medium comprising 0.5% yeast extract, 0.5% bactopeptone, 2% glucose and 2% agar at 30° C. and in the dark.
(§2) All these compounds were prepared in a DMSO solution at a final concentration of 100 mg/ml. The stock solutions are stored at −20° C. up to the time of use.
(§3) The trials are carried out in RPMI 1640 medium with no sodium bicarbonate, but with L-glutamine buffered with 0.165 mol per litre of 3-[N-morpholino]propanesulphonic acid (MOPS), enriched (<>) or otherwise (<>) with 2% glucose. The pH of this medium is adjusted to 7.0. The medium is sterilized by filtration (0.22 μm) and stored at 4° C. up to the time of use.
(§4) All the antifungal tests are carried out on microtitre plates. The initial suspensions of spores are prepared in a sterile solution containing 0.85% NaCl, supplemented with Tween 80 at 0.01%. These initial suspensions are then diluted in the culture medium (RPMI 1640 enriched or otherwise with 2% glucose) to a final concentration of 10^4 spores per ml. The measurements of viability of each inoculum are verified by subcultures of a volume of 300 μl on YEPD agar medium.
(§5) The antifungal compounds are tested in a range of concentrations ranging from 0.026 to 100 μg of active ingredient/ml. These antifungal compounds are then diluted in RPMI 1640 medium enriched or otherwise with 2% glucose. A final DMSO concentration of 0.2% is used throughout the measurements. Each trial is carried out on a series of dilutions of antifungal compounds, in duplicate. The antifungal dilutions (0.1 ml) and the fungal inoculum (0.1 ml) are added to each of the wells of the microtitre plate. The plates are then read with a spectrophotometer (ELX 800UV Bio-Tek Instruments, Inc) at a wavelength of 590 nm. The plates are read immediately after (t=0) and after 48 hours' incubation at 30° C. and in the dark. The optical density values obtained are correlated with fungal growth between the times t=0 and t=48 hours. The optical density values are used to calculate the percentage inhibition of growth for each concentration of antifungals by comparison with the control. The values are then used to plot a dose-response curve and the EC50 value is determined for each fungus and each compound with the aid of the Grafit 5.0® software (Erithacus software Ltd).
(§6) The method which was used to measure the type of interaction existing between the antifungal compounds in the form of mixtures is the Wadley method.
(§7) In the Wadley approach, the dose-response curve for each of the compounds A and B, and for the mixture AB, is constructed. The EC50 is calculated for each compound taken individually and for the mixture. If a and b are the absolute quantities of the compounds A and B in the mixture (a=1, b=1, a+b=2 under our conditions), the expected effective concentration (EC50exp) may be calculated in the following manner: EC50exp=(a+b)/[a/EC50A)+b/(EC50B)
(§8) The Wadley approach may be used to estimate the type of interaction existing between the fungal compounds, regardless of their concentration. Its reliability is not dependent on the percentage inhibition. The type of interaction between two compounds is given by the level of interaction (LI) which corresponds to the ratio between the expected effective concentration (EC50exp) and that observed (EC50obs) of the mixture. The nature of the interaction obtained by the Wadley formula is presented in Table 1 (see U. Gisi, Synergistic interaction in fungicide mixtures, 1996. Phytopathology 86, 1273-1279) below.
(§9) The experimental conditions are the same as previously described.

[2] = test system: Candida albicans strains IP 48.72 (ATCC 10231); test: as above; format: cell-based; conditions: for inhibition at 0.026 µg/mL / inhibition at 0.098 µg/mL / inhibition at 0.39 µg/mL / inhibition at 1.562 µg/mL / inhibition at 6.25 µg/mL / inhibition at 25 µg/mL / inhibition at 100 µg/mL / EC50: Candida albicans; for inhibition at 0.026 µg/mL: dose 0.026 μg/ml; for inhibition at 0.098 µg/mL: dose 0.098 μg/ml; for inhibition at 0.39 µg/mL: dose 0.39 μg/ml; for inhibition at 1.562 µg/mL: dose 1.562 μg/ml; for inhibition at 6.25 µg/mL: dose 6.25 μg/ml; for inhibition at 25 µg/mL: dose 25 μg/ml; for inhibition at 100 µg/mL: dose 100 μg/ml
Description: as §1, §2, §3, §4, §5, §6, §7, §8, §9

[3] = IP864.64, 48 h, minimal RPMI 1640 medium (MM), 48 hours at 30° C.
[4] = IP864.64, 48 h, rich RPMI 1640 medium (RM), 48 hours at 30° C.
[5] = ATCC10231, 48 h, minimal RPMI 1640 medium (MM), 48 hours at 30° C.
[6] = ATCC10231, 48 h, rich RPMI 1640 medium (RM), 48 hours at 30° C.

EC50 ([1]; IP864.64, 48 h, minimal RPMI 1640 medium (MM), 48 hours at 30° C., used alone, read-out: EC50): 0.1 mg/L
EC50 ([1]; IP864.64, 48 h, rich RPMI 1640 medium (RM), 48 hours at 30° C., used alone, read-out: EC50): 0.31 mg/L
EC50 ([1]; IP864.64, 48 h, second study, strain IP 864.64, RPMI 1640 medium enriched with 2% glucose, 48 hours at 30° C., read-out: EC50): 0.179 mg/L
EC50 ([1]; IP864.64, on minimal (MM) or rich (RM) RPMI 1640 medium, summary in conclusions, read-out: EC50 values): 0.1 to 0.5 mg/L
EC50 compared with that of compound II.2 ([1]; second study, IP 864.64, enriched medium): similar
EC50 ([2]; ATCC10231, 48 h, minimal RPMI 1640 medium (MM), 48 hours at 30° C., used alone, read-out: EC50): 0.41 mg/L
EC50 ([2]; ATCC10231, 48 h, rich RPMI 1640 medium (RM), 48 hours at 30° C., used alone, read-out: EC50): 0.3 mg/L
EC50 ([2]; ATCC10231, 48 h, second study, strain IP 48.72, RPMI 1640 medium enriched with 2% glucose, 48 hours at 30° C., read-out: EC50): 0.635 mg/L
EC50 ([2]; ATCC10231, on minimal (MM) or rich (RM) RPMI 1640 medium, summary in conclusions, read-out: EC50 values): 0.1 to 0.5 mg/L
Structure (SMILES): CCN(C)C=Nc1cc(C)c(Oc2ccc(Cl)c(C(F)(F)F)c2)cc1C [Compound I.1, N-ethyl-N-methyl-N′-[4-(4-chloro-3-trifluoromethylphenoxy)-2,5-dimethylphenyl]imidoformamide]
inhibition at 0.026 µg/mL [1, 3]: 1%
inhibition at 0.026 µg/mL [1, 4]: 2.24%
inhibition at 0.098 µg/mL [1, 3]: 57.9%
inhibition at 0.098 µg/mL [1, 4]: 23.1%
inhibition at 0.39 µg/mL [1, 3]: 80.1%
inhibition at 0.39 µg/mL [1, 4]: 51.1%
inhibition at 1.562 µg/mL [1, 3]: 94.6%
inhibition at 1.562 µg/mL [1, 4]: 97.4%
inhibition at 6.25 µg/mL [1, 3]: 97.1%
inhibition at 6.25 µg/mL [1, 4]: 98.1%
inhibition at 25 µg/mL [1, 3]: 98.4%
inhibition at 25 µg/mL [1, 4]: 98.1%
inhibition at 100 µg/mL [1, 3]: 98.1%
inhibition at 100 µg/mL [1, 4]: 97.4%
activity compared with itraconazole (compound II.2) ([1]; MM or RM medium): equivalent
inhibition at 0.026 µg/mL [2, 5]: 4.6%
inhibition at 0.026 µg/mL [2, 6]: 12.6%
inhibition at 0.098 µg/mL [2, 5]: 7%
inhibition at 0.098 µg/mL [2, 6]: 27.3%
inhibition at 0.39 µg/mL [2, 5]: 46.1%
inhibition at 0.39 µg/mL [2, 6]: 43.6%
inhibition at 1.562 µg/mL [2, 5]: 96.2%
inhibition at 1.562 µg/mL [2, 6]: 96.9%
inhibition at 6.25 µg/mL [2, 5]: 98.7%
inhibition at 6.25 µg/mL [2, 6]: 99.5%
inhibition at 25 µg/mL [2, 5]: 99.2%
inhibition at 25 µg/mL [2, 6]: 99.5%
inhibition at 100 µg/mL [2, 5]: 98.1%
inhibition at 100 µg/mL [2, 6]: 98.8%
activity compared with fluconazole (compound II.1) ([2]; MM or RM medium): at least equivalent
